These are literature values, as cited in patent CN116041271A, “一种氟苯尼考中间体的制备方法” (Shandong Weiyan Biotechnology Co ltd, priority 2022, dated 2023).

In one data set the test system is Fusobacterium (梭杆菌). The conditions noted are these: in words; cattle.
For data set [1] the following is noted: in words.
For data set [2] the following is noted: administered in feed.
For data set [3] the following is noted: in words. The source holds these as a separate data set.

SMILES strings stand for the structures.

As to `CS(=O)(=O)c1ccc([C@@H](O)[C@@H](CF)NC(=O)C(Cl)Cl)cc1` [氟苯尼考], under “compared with chloramphenicol, thiamphenicol”, the “antibacterial effect relative to chloramphenicol and thiamphenicol” value is 15-20 times. Besides, for the setting “in words”, the antibacterial spectrum result was “广”, the bacteriostatic action result is reported as “强” and the “minimum inhibitory concentration (MIC)” value was “低”. In addition, in the data set on Fusobacterium (梭杆菌), the “therapeutic effect on bovine foot rot caused by Fusobacterium” value is given as “有较好疗效”. Moreover, in data set [1], the control of disease entry is listed as “能迅速控制病情”. The “time after administration to peak drug concentration in tissue” value in data set [2] is listed as 60 min. Moreover, in data set [3], the “potential risk of causing aplastic anemia” value was “无潜在致再生障碍性贫血的隐患”, the residue entry is listed as “无残留”, the safety result is given as “安全性高” and the toxicity result is “无毒”.
